Measurements from ChEMBL document CHEMBL2086329, “Design and synthesis of potent, selective inhibitors of matriptase” (ACS Med Chem Lett, 2012).
pKi: −log10 of the molar value. Activity calls are given as the source filed them. The calls are words filed in the database; no cut-off is given here. Where a SMILES comes first, the peptide text is derived from it. The star is where a group is joined. CH2Cl = ClC*

Assays:
[1] = target: T1, Suppressor of tumorigenicity 14 protein (Homo sapiens) (UniProt Q9Y5Y6); assay: Irreversible inhibition of human matriptase expressed in Drosophila melanogaster S2 cells using Boc-QAR-AMC as substrate incubated for 20 mins prior to substrate addition measured for 75 mins by fluorimetric analysis
T1 sequence (whole entry): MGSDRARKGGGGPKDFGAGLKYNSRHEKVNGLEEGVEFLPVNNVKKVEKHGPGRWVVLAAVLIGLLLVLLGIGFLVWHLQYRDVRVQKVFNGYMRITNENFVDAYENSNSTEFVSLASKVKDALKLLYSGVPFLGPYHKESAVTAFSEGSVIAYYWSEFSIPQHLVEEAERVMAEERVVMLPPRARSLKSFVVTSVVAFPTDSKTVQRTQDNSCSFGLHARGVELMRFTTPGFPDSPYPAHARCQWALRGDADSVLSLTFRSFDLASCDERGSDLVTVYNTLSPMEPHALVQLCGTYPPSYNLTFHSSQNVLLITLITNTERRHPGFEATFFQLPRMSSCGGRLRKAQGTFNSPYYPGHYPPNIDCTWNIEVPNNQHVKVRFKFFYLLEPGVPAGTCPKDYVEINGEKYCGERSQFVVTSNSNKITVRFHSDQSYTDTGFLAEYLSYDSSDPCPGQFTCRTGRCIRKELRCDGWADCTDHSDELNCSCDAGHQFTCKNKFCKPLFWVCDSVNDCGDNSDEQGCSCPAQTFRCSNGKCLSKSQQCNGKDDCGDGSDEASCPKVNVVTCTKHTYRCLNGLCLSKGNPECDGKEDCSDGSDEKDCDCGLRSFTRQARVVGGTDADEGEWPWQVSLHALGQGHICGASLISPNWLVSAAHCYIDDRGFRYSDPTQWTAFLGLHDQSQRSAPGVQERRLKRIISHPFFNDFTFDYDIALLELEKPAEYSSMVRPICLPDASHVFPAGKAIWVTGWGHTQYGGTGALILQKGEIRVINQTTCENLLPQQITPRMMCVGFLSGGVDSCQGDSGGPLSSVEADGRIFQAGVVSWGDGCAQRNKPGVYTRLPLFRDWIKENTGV

[2] = target: T2, Suppressor of tumorigenicity 14 protein (Homo sapiens, UniProt Q9Y5Y6); assay: Mixed inhibition of human matriptase expressed in Drosophila melanogaster S2 cells using Boc-QAR-AMC as substrate by fluorimetric analysis
T2 sequence (Q9Y5Y6 whole entry): T1 sequence (whole entry)

[3] = target: T2, Suppressor of tumorigenicity 14 protein; assay: Tight binding inhibition of human matriptase expressed in Drosophila melanogaster S2 cells using Boc-QAR-AMC as substrate incubated for 15 mins prior to substrate addition measured for 30 mins by fluorimetric analysis
[4] = target: T3, Transmembrane protease serine 6 (Homo sapiens, UniProt Q8IU80); assay: Tight binding inhibition of human matriptase2 expressed in Drosophila melanogaster S2 cells using Boc-QAR-AMC as substrate incubated for 15 mins prior to substrate addition measured for 30 mins by fluorimetric analysis
T3 sequence (Q8IU80 whole entry): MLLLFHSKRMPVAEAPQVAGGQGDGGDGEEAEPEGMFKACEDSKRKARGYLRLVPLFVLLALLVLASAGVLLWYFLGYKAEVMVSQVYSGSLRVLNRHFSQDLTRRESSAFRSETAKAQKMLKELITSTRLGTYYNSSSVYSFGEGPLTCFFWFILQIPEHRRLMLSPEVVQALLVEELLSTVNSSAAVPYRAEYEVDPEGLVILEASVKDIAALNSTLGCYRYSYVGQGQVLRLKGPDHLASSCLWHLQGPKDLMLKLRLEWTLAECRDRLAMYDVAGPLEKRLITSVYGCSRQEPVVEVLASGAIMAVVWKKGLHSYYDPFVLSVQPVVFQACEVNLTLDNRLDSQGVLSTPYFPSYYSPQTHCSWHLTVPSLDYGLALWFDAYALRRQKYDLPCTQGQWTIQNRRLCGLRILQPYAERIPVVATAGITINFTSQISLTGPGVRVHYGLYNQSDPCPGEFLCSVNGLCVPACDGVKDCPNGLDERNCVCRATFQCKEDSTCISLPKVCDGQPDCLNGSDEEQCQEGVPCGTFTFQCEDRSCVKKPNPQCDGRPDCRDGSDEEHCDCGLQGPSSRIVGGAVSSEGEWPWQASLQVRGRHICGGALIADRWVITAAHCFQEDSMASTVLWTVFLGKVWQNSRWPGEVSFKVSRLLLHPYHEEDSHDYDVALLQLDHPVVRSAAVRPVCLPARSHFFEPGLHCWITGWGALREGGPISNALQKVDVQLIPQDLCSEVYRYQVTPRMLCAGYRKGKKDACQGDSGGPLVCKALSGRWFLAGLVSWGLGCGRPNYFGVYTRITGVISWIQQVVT

[5] = target: T4, Transmembrane protease serine 11D (Homo sapiens, UniProt O60235); assay: Tight binding inhibition of human TMPRSS11D expressed in Drosophila melanogaster S2 cells using Boc-QAR-AMC as substrate incubated for 15 mins prior to substrate addition measured for 30 mins by fluorimetric analysis
T4 sequence (O60235 whole entry): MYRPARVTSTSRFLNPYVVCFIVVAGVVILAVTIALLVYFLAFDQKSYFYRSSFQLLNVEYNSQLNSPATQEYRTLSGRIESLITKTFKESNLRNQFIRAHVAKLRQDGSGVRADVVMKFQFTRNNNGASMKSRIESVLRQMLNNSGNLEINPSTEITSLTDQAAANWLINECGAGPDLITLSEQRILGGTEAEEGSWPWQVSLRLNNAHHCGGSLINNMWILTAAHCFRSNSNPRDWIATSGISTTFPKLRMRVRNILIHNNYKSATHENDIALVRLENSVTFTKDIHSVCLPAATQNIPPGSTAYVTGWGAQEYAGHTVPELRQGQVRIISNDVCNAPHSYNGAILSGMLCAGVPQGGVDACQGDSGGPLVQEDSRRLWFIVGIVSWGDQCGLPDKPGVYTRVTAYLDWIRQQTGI

Trypsin = Trypsin (Homo sapiens, UniProt P07477+P07478+P35030); assay: Tight binding inhibition of human trypsin expressed in Drosophila melanogaster S2 cells using Boc-QAR-AMC as substrate incubated for 15 mins prior to substrate addition measured for 30 mins by fluorimetric analysis
Prothrombin = Prothrombin (Homo sapiens, UniProt P00734); assay: Mixed inhibition of human thrombin expressed in Drosophila melanogaster S2 cells using Boc-QAR-AMC as substrate by fluorimetric analysis
Furin (Homo sapiens) = Furin (Homo sapiens) (UniProt P09958); assay: Inhibition of human furin expressed in Drosophila melanogaster S2 cells using Boc-RRVR-AMC as substrate at 10 uM
Chain of Furin (Homo sapiens) (P09958 whole entry): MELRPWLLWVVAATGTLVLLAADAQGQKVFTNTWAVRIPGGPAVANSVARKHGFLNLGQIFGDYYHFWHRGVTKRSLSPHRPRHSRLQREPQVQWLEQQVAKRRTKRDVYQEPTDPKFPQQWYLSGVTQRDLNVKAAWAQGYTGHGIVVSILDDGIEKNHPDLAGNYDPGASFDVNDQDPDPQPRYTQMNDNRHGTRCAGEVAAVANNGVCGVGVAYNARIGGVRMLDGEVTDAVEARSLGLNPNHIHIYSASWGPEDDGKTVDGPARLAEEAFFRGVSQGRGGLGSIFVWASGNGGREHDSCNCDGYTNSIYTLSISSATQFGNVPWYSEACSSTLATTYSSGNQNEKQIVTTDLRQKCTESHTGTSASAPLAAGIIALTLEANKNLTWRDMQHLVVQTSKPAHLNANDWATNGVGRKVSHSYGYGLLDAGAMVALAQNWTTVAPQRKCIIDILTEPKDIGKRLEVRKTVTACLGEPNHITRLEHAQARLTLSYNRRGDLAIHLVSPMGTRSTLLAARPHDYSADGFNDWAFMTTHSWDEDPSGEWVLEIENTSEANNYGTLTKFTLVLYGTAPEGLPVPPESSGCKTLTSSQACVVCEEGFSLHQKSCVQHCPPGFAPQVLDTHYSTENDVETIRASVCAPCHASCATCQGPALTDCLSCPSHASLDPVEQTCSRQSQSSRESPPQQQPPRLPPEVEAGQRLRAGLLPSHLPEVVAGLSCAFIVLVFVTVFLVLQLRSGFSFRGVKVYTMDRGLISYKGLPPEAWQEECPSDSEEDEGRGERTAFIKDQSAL

[6] = target: T1, Suppressor of tumorigenicity 14 protein (Homo sapiens); settings: S2, 2.5 nM
Description: Inhibition of human matriptase expressed in Drosophila melanogaster S2 cells using Boc-QAR-AMC as substrate at 2.5 nM by fluorimetric analysis

N=C(N)NCCC[C@H](NC(=O)CNC(=O)[C@@H](N)CCC(=O)O)C(=O)CCl (H-Glu-Gly-Arg-CH2Cl)
inhibition [1]: Active

C[C@H](NC(=O)[C@H](CCC(N)=O)NC(=O)[C@@H](N)CCCNC(=N)N)C(=O)N[C@@H](CCCNC(=N)N)C(O)c1nc2ccccc2s1 (mixture of isomers)
pKi [2]: 5.21

N=C(N)NCCC[C@H](N)C(=O)c1nc2ccccc2s1
pKi [2]: 6.34

C[C@H](N)C(=O)N[C@@H](CCCN=C(N)N)C(=O)c1nc2ccccc2s1
pKi [3]: 8.85

C[C@H](NC(=O)[C@H](CCC(N)=O)NC(=O)[C@@H](N)CCCNC(=N)N)C(=O)N[C@@H](CCCNC(=N)N)C(=O)c1nc2ccccc2s1
pKi [4]: 8.48 | pKi [5]: 8.08 | Ki (Trypsin): 0.97 nM | pKi (Prothrombin): 6.20 | inhibition (Furin (Homo sapiens)): inactive | inhibition [6]: Active
